Assays:
c-Cbl = c-Cbl (Homo sapiens (Human), UniProt P22681); experiment: C-Cbl LCK Ub TR-FRET assay (c-cbl Lck HTRF); assay type: biochemical; conditions: for (fold-selectivity): C-cbl Lck HTRF IC50 relative to Cbl-b Lck HTRF IC50
Summary of the method: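 After the ubiquitination reaction, detection mixture was added and plates incubated 20 min at room temperature before reading. IC50 values were calculated with wells lacking LCK as the low control and DMSO as the high control.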

Cbl-b = Cbl-b (Homo sapiens (Human), UniProt Q13191); experiment: Cbl-b LCK Ub TR-FRET assay (Cbl-b Lck HTRF); assay type: biochemical
Chain of Cbl-b (Q13191 40-426): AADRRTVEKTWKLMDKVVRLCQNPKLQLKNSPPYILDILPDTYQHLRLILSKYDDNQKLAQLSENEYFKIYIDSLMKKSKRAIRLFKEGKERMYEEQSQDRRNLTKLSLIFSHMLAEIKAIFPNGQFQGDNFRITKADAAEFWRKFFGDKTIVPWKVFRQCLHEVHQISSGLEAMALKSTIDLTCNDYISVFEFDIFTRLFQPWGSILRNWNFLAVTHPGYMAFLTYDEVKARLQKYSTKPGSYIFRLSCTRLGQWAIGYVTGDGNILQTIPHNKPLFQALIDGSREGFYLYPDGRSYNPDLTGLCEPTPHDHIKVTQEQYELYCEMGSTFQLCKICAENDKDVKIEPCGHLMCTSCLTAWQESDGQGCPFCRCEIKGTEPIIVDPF
Summary of the method: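 TR-FRET (340 nm excitation, 615/665 nm emission) read after adding HA-ubiquitin–UBE2D2 thioester, anti-HA-D2 and streptavidin-Eu. Beforehand, compounds incubated 60 min with biotinylated Cbl-b, then 90 min with His-LCK and ATP (1 mM in 2× mix); IC50 from 10 concentrations, DMSO high and no-LCK low controls.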

Chain of c-Cbl (P22681 47-435): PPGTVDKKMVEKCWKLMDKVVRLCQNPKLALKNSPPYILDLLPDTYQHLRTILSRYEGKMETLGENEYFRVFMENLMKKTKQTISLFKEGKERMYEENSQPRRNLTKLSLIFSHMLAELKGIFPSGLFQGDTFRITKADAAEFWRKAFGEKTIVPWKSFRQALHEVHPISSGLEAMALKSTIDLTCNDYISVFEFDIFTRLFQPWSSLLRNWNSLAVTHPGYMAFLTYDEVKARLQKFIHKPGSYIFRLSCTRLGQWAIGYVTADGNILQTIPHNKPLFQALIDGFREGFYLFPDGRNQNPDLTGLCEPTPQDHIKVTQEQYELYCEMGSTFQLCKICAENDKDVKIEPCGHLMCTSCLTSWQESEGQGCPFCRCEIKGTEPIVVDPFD

Row | IC50 (c-Cbl) [µM] | (fold-selectivity) (c-Cbl) | IC50 (Cbl-b) [µM] | SMILES
1 | 0.045 | (1.0x) | 0.045 | CN1CCN(Cc2cc3c(c(C(F)(F)F)c2)CN(c2cccc(C4(Cc5nncn5C)CC(F)(F)C4)c2)C3=O)CC1C1CC1 (stereo not drawn) [Compound 403, 6-((3-cyclopropyl-4-methylpiperazin-1-yl)methyl)-2-(3-(3,3-difluoro-1-((4-methyl-4H-1,2,4-triazol-3-yl)methyl)cyclobutyl)phenyl)-4-(trifluoromethyl)isoindolin-1-one]
2 | 0.013 | (1.0x) | 0.013 | CC(C)CNc1cc(C2(Cc3nncn3C)CCC2)cc(N2Cc3c(cc(CNC4(C)CCC4)cc3C(F)(F)F)C2=O)n1 [Compound 348, 2-(6-(isobutylamino)-4-(1-((4-methyl-4H-1,2,4-triazol-3-yl)methyl)cyclobutyl)pyridin-2-yl)-6-(((1-methylcyclobutyl)amino)methyl)-4-(trifluoromethyl)isoindolin-1-one]
3 | 0.0048 | 0.60x | 0.008 | CC(C)[C@H]1CNCCN1Cc1cc2c(c(C(F)(F)F)c1)CN(c1cccc(C3([C@@H](F)c4nncn4C)CCC3)c1)C2=O [Compound 216, 2-(3-(1-((R)-fluoro(4-methyl-4H-1,2,4-triazol-3-yl)methyl)cyclobutyl)phenyl)-6-(((S)-2-isopropylpiperazin-1-yl)methyl)-4-(trifluoromethyl)isoindolin-1-one]
4 | 0.0061 | (0.96x) | 0.0064 | CCNc1cc(N2Cc3c(cc(CNC4(C)CCC4)cc3C(F)(F)F)C2=O)cc(C2(Cc3nncn3C)CC(F)(F)C2)c1 [Compound 466, 2-(3-(3,3-difluoro-1-((4-methyl-4H-1,2,4-triazol-3-yl)methyl)cyclobutyl)-5-(ethylamino)phenyl)-6-(((1-methylcyclobutyl)amino)methyl)-4-(trifluoromethyl)isoindolin-1-one]
5 | 0.01 | (0.86x) | 0.012 | Cn1cnnc1CC1(c2cccc(N3Cc4c(cc(CNC5(C)CCC5)cc4C(F)(F)F)C3=O)c2)COC1 [Compound 301, 2-(3-(3-((4-methyl-4H-1,2,4-triazol-3-yl)methyl)oxetan-3-yl)phenyl)-6-(((1-methylcyclobutyl)amino)methyl)-4-(trifluoromethyl)isoindolin-1-one]
6 | 0.0084 | (0.58x) | 0.014 | CCN1CCN(Cc2cc3c(c(C(F)(F)F)c2)CN(c2cccc(C4([C@@H](F)c5nncn5C)CC(F)(F)C4)c2)C3=O)[C@@H](C(C)C)C1 [Compound 460, 2-(3-(3,3-difluoro-1-((R)-fluoro(4-methyl-4H-1,2,4-triazol-3-yl)methyl)cyclobutyl)phenyl)-6-(((S)-4-ethyl-2-isopropylpiperazin-1-yl)methyl)-4-(trifluoromethyl)isoindolin-1-one]
7 | 0.12 | (1.3x) | 0.094 | CN1CCN(Cc2cc3c(c(C(F)(F)F)c2)CN(c2cccc(C4(Cc5nncn5C)CC(F)(F)C4)c2)C3=O)[C@H](C2CC2)C1 [Compound 433, (R)-6-((2-cyclopropyl-4-methylpiperazin-1-yl)methyl)-2-(3-(3,3-difluoro-1-((4-methyl-4H-1,2,4-triazol-3-yl)methyl)cyclobutyl)phenyl)-4-(trifluoromethyl)isoindolin-1-one]
8 | 0.025 | 2.0x | 0.013 | CC(C)[C@H]1CN(C)CCN1Cc1cc2c(c(C(F)(F)F)c1)CN(c1cccc(C3([C@H](F)c4nncn4C)COC3)c1)C2=O [Compound 188, 2-(3-(3-((S)-fluoro(4-methyl-4H-1,2,4-triazol-3-yl)methyl)oxetan-3-yl)phenyl)-6-(((S)-2-isopropyl-4-methylpiperazin-1-yl)methyl)-4-(trifluoromethyl)isoindolin-1-one]
9 | 0.43 | (0.84x) | 0.51 | Cn1cnnc1C(F)(F)C1(c2cccc(N3Cc4c(cc(CN)cc4C(F)(F)F)C3=O)c2)CC(F)(F)C1 [Compound 399, 6-(aminomethyl)-2-(3-(1-(difluoro(4-methyl-4H-1,2,4-triazol-3-yl)methyl)-3,3-difluorocyclobutyl)phenyl)-4-(trifluoromethyl)isoindolin-1-one]
10 | 0.061 | 1.6x | 0.038 | CCNCc1cc2c(c(C(F)(F)F)c1)CN(c1cccc(C3([C@@H](F)c4nncn4C)COC3)c1)C2=O [Compound 213, (R)-6-((ethylamino)methyl)-2-(3-(3-(fluoro(4-methyl-4H-1,2,4-triazol-3-yl)methyl)oxetan-3-yl)phenyl)-4-(trifluoromethyl)isoindolin-1-one]
11 | 0.015 | 1.0x | 0.015 | CC(C)[C@H]1CN(C)CCN1Cc1cc2c(c(C(F)(F)F)c1)CN(c1cccc(C3(C(F)(F)c4nncn4C)CC3)c1)C2=O [Compound 221, (S)-2-(3-(1-(Difluoro(4-methyl-4H-1,2,4-triazol-3-yl)methyl)cyclopropyl)phenyl)-6-((2-isopropyl-4-methylpiperazin-1-yl)methyl)-4-(trifluoromethyl)isoindolin-1-one]
12 | 0.16 | (2.0x) | 0.082 | Cn1cnnc1CC1(c2cc(OC3CCCC3)cc(N3Cc4c(cc(CNC5(C)CCC5)cc4C(F)(F)F)C3=O)c2)CC(F)(F)C1 [Compound 478, 2-(3-(cyclopentyloxy)-5-(3,3-difluoro-1-((4-methyl-4H-1,2,4-triazol-3-yl)methyl)cyclobutyl)phenyl)-6-(((1-methylcyclobutyl)amino)methyl)-4-(trifluoromethyl)isoindolin-1-one]
13 | 0.018 | 1.5x | 0.012 | CC(C)[C@H]1CNCCN1Cc1cc2c(c(C(F)(F)F)c1)CN(c1cccc(C3([C@@H](F)c4nncn4C)COC3)c1)C2=O [Compound 96, 2-(3-(3((R)-fluoro(4-methyl-4H-1,2,4-triazol-3-yl)methyl)oxetan-3-yl)phenyl)-6-(((S)-2-isopropylpiperazin-1-yl)methyl)-4-(trifluoromethyl)isoindolin-1-one]
14 | 0.0071 | (0.94x) | 0.0083 | CC(C)[C@H]1CN(C)CCN1Cc1cc2c(c(C(F)(F)F)c1)CN(c1cc(C3([C@@H](F)c4nncn4C)CCC3)cc(NCCO)n1)C2=O [Compound 233, 2-(4-(1-((R)-fluoro(4-methyl-4H-1,2,4-triazol-3-yl)methyl)cyclobutyl)-6-((2-hydroxyethyl)amino)pyridin-2-yl)-6-(((S)-2-isopropyl-4-methyl-piperazin-1-yl)methyl)-4-(trifluoromethyl)isoindolin-1-one]
15 | 0.007 | (1.0x) | 0.007 | C=CCNc1cc(C2(Cc3nncn3C)CCC2)cc(N2Cc3c(cc(CN4CCN(C)C[C@@H]4C(C)C)cc3C(F)(F)F)C2=O)n1 [Compound 275, (S)-2-(6-(allylamino)-4-(1-((4-methyl-4H-1,2,4-triazol-3-yl)methyl)cyclobutyl)pyridin-2-yl)-6-((2-isopropyl-4-methylpiperazin-1-yl)methyl)-4-(trifluoromethyl)isoindolin-1-one]
16 | 0.11 | 1.5x | 0.072 | COCC1(O)CN(Cc2cc3c(c(C(F)(F)F)c2)CN(c2cccc(C4([C@@H](F)c5nncn5C)COC4)c2)C3=O)C1 [Compound 185, (R)-2-(3-(3-(fluoro(4-methyl-4H-1,2,4-triazol-3-yl)methyl)oxetan-3-yl)phenyl)-6-((3-hydroxy-3-(methoxymethyl)azetidin-1-yl)methyl)-4-(trifluoromethyl)isoindolin-1-one]
17 | 0.034 | (1.2x) | 0.028 | Cn1cnnc1CC1(c2cccc(N3Cc4c(cc(CNC5(C)COC5)cc4C(F)(F)F)C3=O)c2)CC(F)(F)C1 [Compound 332, 2-(3-(3,3-difluoro-1-((4-methyl-4H-1,2,4-triazol-3-yl)methyl)cyclobutyl)phenyl)-6-(((3-methyloxetan-3-yl)amino)methyl)-4-(trifluoromethyl)isoindolin-1-one]
18 | 0.023 | (0.95x) | 0.024 | Cn1cc(CNc2cc(C3(Cc4nncn4C)CCC3)cc(N3Cc4c(cc(CNC5(C)CCC5)cc4C(F)(F)F)C3=O)n2)cn1 [Compound 313, 2-(6-(((1-methyl-1H-pyrazol-4-yl)methyl)amino)-4-(1-((4-methyl-4H-1,2,4-triazol-3-yl)methyl)cyclobutyl)pyridin-2-yl)-6-(((1-methylcyclobutyl)amino)methyl)-4-(trifluoromethyl)isoindolin-1-one]
19 | 0.081 | (0.82x) | 0.0098 | Cn1cnnc1[C@H](F)C1(c2cccc(N3Cc4c(cc(CNCCCF)cc4C(F)(F)F)C3=O)c2)COC1 [Compound 231, (R)-2-(3-(3-(fluoro(4-methyl-4H-1,2,4-triazol-3-yl)methyl)oxetan-3-yl)phenyl)-6-(((3-fluoropropyl)amino)methyl)-4-(trifluoromethyl)isoindolin-1-one]
20 | 0.0078 | (1.4x) | 0.0055 | CC(C)[C@H]1CN(C)CCN1Cc1cc2c(c(C(F)(F)F)c1)CN(c1cc(C3(Cc4nncn4C)COC3)cc(OC3CCCC3)n1)C2=O [Compound 293, (S)-2-(6-(cyclopentyloxy)-4-(3-((4-methyl-4H-1,2,4-triazol-3-yl)methyl)oxetan-3-yl)pyridin-2-yl)-6-((2-isopropyl-4-methylpiperazin-1-yl)methyl)-4-(trifluoromethyl)isoindolin-1-one]

Source: patent publication US20250230147A1, “LACTAMS AS CBL-B INHIBITORS” (Genentech, Inc., priority 2021, published 2025)
